Measurements as given in patent publication US11612601B1, “Targeting epidermal growth factor to treat vascular calcification” (THE FLORIDA INTERNATIONAL UNIVERSITY BOARD OF TRUSTEES, priority 2022, dated 2023).

Key:
CKD mice = assay: Femur X-ray CT bone thickness and bone volume fraction in CKD mice; format: in vivo, mouse
Procedure: Femurs were dissected from mice, wrapped in parafilm and imaged directly in a Nikon XT H 225 scanner (macro-CT, Nikon Metrology, Tring, UK). The raw transmission images were reconstructed using commercial image reconstruction software package (CT Pro 3D, Nikon Metrology, Tring, UK), which employs a filtered back-projection algorithm. The scan was performed using 80 kV beam energy, 70 μA beam current, and a power of 5.6 W. A PerkinElmer 1620 flat panel detector was used, with 200 μm pixel size. The resulting effective pixel size was 5 μm. The exposure time per projection was 0.5 s, and a total of 1601 projections were acquired, resulting in a scanning time of approximately 13 minutes per sample. Bone structural parameters, including thickness and volume fraction (the ratio of bone volume (BV) to total volume (TV)), for both cortical and trabecular regions were assessed using a plug-in module, BoneJ, in ImageJ (NIH, USA).

[1] = system: Primary human coronary artery vascular smooth muscle cells; assay: VSMC extracellular matrix collagen (Sircol soluble collagen assay); format: cell-based; details: VSMCs, OS media, 2.5 μM, 28 days; p=0.10
Procedure: After 28 days of treatment, soluble collagen was extracted from the cultures using acetic acid (0.5 M) through overnight incubation at 4° C. A colorimetric assay, Sircol soluble collagen assay (Biocolor, S1000), measured the total soluble extracellular matrix (ECM) collagen in each group. Samples were prepared and assessed according to the manufacturer's protocol. Results were then normalized to the total protein measured using BCA assay.

COc1cc2ncnc(Nc3cccc(Cl)c3)c2cc1OC [AG1478, tyrphostin AG1478]
thickness of cortical bone (CKD mice; CKD mice treated vs CKD, p=0.004): increased
thickness of trabecular bone, metaphysical region (CKD mice; CKD mice treated vs CKD, p=0.02): increased
thickness of trabecular bone, epiphyseal region (CKD mice; CKD mice treated vs CKD, p=0.04): increased
bone volume fraction in trabecular bone, metaphysical region (CKD mice; compared to CKD animals, p=0.002): increased
bone volume fraction in trabecular bone, epiphyseal region (CKD mice; compared to CKD animals, p=0.009): increased
bone volume fraction in cortical bone (CKD mice; compared to CKD animals, p=0.25): did not significantly change
ECM collagen accumulation [1]: did not affect
